For 17 compounds, IC50 results are on record in BindingDB's records for doi:10.1016/j.bioorg.2016.02.004 (Universiti Teknologi Mara (Uitm), Puncak Alam Campus, 2016).

Chain of Alpha-glucosidase MAL12 (P53341 whole entry): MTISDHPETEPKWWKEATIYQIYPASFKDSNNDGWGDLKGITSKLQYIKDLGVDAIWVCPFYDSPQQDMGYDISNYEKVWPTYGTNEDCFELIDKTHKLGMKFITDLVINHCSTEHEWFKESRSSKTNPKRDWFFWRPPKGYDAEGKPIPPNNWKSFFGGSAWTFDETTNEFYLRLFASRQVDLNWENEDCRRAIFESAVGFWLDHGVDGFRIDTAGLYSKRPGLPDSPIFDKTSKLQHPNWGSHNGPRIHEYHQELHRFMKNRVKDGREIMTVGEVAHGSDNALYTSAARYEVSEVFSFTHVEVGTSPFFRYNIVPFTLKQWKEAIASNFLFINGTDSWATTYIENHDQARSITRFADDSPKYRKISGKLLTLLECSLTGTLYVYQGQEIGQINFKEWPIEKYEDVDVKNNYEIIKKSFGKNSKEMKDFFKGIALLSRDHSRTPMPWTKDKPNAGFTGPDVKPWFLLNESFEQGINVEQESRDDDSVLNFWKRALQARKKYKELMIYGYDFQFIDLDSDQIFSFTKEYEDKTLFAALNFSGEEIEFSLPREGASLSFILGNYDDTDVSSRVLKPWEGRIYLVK

This test has as its target Alpha-glucosidase MAL12 (Saccharomyces cerevisiae (strain ATCC 204508 / S288c), UniProt P53341). As to the kind of experiment: Assay for α-Glucosidase Inhibitory Activity. Here is the method:
The 135 µL of 50 mM phosphate saline buffer pH (6.8), solution of enzyme (20 µL), and 20 µL of test sample with 70% DMSO was added to 96-well plate. The samples were incubated for 15 min. Pre-read of the plate was taken after incubation using SpectraMax. substrate (pNPG) (25 µL) was added before final reading was takenat 400 nm on Spectra Max.
Broadly, the IC50 is the concentration that inhibits the measured activity by half. Low readings indicate greater potency in that assay, high ones weaker potency in that assay. As for `Cc1cccc2nc(-c3ccccc3Cl)[nH]c12` [2-(2'-Chlorophenyl)-7-methyl-1H-benzo[d]imidazole (25)], inhibition was half-maximal at 5.3 µM (IC50).
Under `Cc1cccc2nc(-c3ccc(O)cc3O)[nH]c12` [2-(2',4'-Dihydroxyphenyl)-7-methyl-1H-benzo[d]imidazole (2)] stands 60.9 µM.
Under `Cc1cccc2nc(-c3ccc(O)c(O)c3)[nH]c12` [2-(3',4'-Dihydroxyphenyl)-7-methyl-1H-benzo[d]imidazole (10)] stands 25.4 µM.
Under `Cc1cccc2nc(-c3cccc(O)c3)[nH]c12` [2-(3'-Hydroxyphenyl)-7-methyl-1H-benzo[d]imidazole (18)] stands 326 µM.
In turn, `Cc1cccc2nc(-c3ccncc3)[nH]c12` [7-Methyl-2-(pyridin-4'-yl)-1H-benzo[d]imidazole (24)] yielded an IC50 of 726 µM.
Under `COc1ccc(-c2nc3cccc(C)c3[nH]2)cc1O` [2-(3'-Hydroxy-4'-methoxyphenyl)-7-methyl-1H-benzo[d]imidazole (21)] stands 226 µM; under `Cc1cccc2nc(-c3ccccc3O)[nH]c12` [2-(2'-Hydroxyphenyl)-7-methyl-1H-benzo[d]imidazole (19)], 16.1 µM; under `Cc1cccc2nc(-c3ccc(O)cc3)[nH]c12` [2-(4'-Hydroxyphenyl)-7-methyl-1H-benzo[d]imidazole (17)], 95.6 µM.
Under `Cc1cccc2nc(-c3cc(O)ccc3O)[nH]c12` [2-(20,50-Dihydroxyphenyl)-7-methyl-1H-benzo[d]imidazole (13)] stands 125 µM; under `COc1ccc(O)c(-c2nc3cccc(C)c3[nH]2)c1` [2-(2'-Hydroxy-5'-methoxyphenyl)-7-methyl-1H-benzo[d]imidazole (14)], 45.2 µM.
Compound `Cc1cccc2nc(-c3cccc(F)c3)[nH]c12` [2-(3'-Fluorophenyl)-7-methyl-1H-benzo[d]imidazole (9)] returned an IC50 of 165 µM.
`Cc1cccc2nc(-c3ccccc3[N+](=O)[O-])[nH]c12` [2-(2'-Nitrophenyl)-7-methyl-1H-benzo[d]imidazole (7)] yielded an IC50 of 44.6 µM.
Under `COc1ccc(-c2nc3cccc(C)c3[nH]2)c(O)c1` [2-(2'-Hydroxy-4'-methoxyphenyl)-7-methyl-1H-benzo[d]imidazole (20)] stands 29.8 µM; under `Cc1cccc2nc(-c3ccc(Cl)cc3)[nH]c12` [2-(4'-Chlorophenyl)-7-methyl-1H-benzo[d]imidazole (27)], 145 µM.
Under `Cc1cccc2nc(-c3ccc(F)cc3)[nH]c12` [2-(4'-Fluorophenyl)-7-methyl-1H-benzo[d]imidazole (16)] stands 136 µM; under `Cc1cccc2nc(-c3cccc(O)c3O)[nH]c12` [2-(2',3'-Dihydroxyphenyl)-7-methyl-1H-benzo[d]imidazole (15)], 85.6 µM.
Under `Cc1cccc2nc(-c3ccccc3F)[nH]c12` [2-(2'-Fluorophenyl)-7-methyl-1H-benzo[d]imidazole (8)] stands 34.4 µM.
